# How the values were obtained:
# [1] = Visual acuity in limbal stem cell insufficiency (LSCI) patients treated with topical steroid drops; format: in vivo, human; details: OU
# Procedure: (§1) In these experiments, the clinical charts and images of three patients diagnosed with LSCI were retrospectively reviewed. […] The patients were followed monthly until resolution. The patients were treated with topical steroid drops based on in vivo confocal microscopy findings that indicate the presence of inflammation. […] The images were quantified for dendritiform immune cell density (DC) and total counts of nerves and branches with respective density with ImageJ/Neuron J software.
# [2] = tested on: dendritic cells in the central cornea and superior limbus; assay: In vivo confocal microscopy of dendritiform immune cell density in LSCI patients; parameters: species or system human; details: for average density of dendritic cells in the superior limbus: after treatment, pooled LSCI subjects (loteprednol etabonate or rimexolone); for average dendritic cell density in the cornea: following three months of treatment, pooled LSCI subjects (loteprednol etabonate 4 eyes, rimexolone 2 eyes), 577.4±323.8 at presentation, p=0.001
# Procedure: as §1
SMILES,"visual acuity after treatment ([1]; LSCI Patient 2, 0.5% QID initially, then taper for 11 months, 20/20 OD and 20/60 OS at presentation)","visual acuity after treatment ([1]; LSCI Patient 3, 0.5% QID initially, then taper for 4 months, 20/30 OD and 20/20 OS at presentation)",average density of dendritic cells in the superior limbus [2],average dendritic cell density in the cornea [2],"visual acuity after treatment ([1]; LSCI Patient 1, 1% QID initially, then taper for 5 months, 20/25 OD and 20/40 OS at presentation)"
CCOC(=O)O[C@]1(C(=O)OCCl)CC[C@H]2[C@@H]3CCC4=CC(=O)C=C[C@]4(C)[C@H]3[C@@H](O)C[C@@]21C [loteprednol etabonate],20/20,20/20,238.2±158.4 cells/mm^2,234.6±233.7 cells/mm^2,
CCC(=O)[C@@]1(C)[C@H](C)C[C@H]2[C@@H]3CCC4=CC(=O)C=C[C@]4(C)[C@H]3[C@@H](O)C[C@@]21C [rimexolone],,,238.2±158.4 cells/mm^2,234.6±233.7 cells/mm^2,20/20

# — US9278120B2, “Inflammatory eye disorders” (Massachusetts Eye and Ear Infirmary, priority 2012, dated 2016)
